# Laboratory results published in patent US20210189367A1, “Inducible Cell Receptors for Cell-Based Therapeutics” (Senti Biosciences, Inc., priority 2017, published 2021).
# Experiments:
# Format in all cases: cell-based, human
# [1] = system: CAR-T cells co-cultured with target HER2+ SKOV3 tumor cells; assay: Cytokine production by CAR-T cells co-cultured with target tumor cells, Luminex multi-cytokine array; conditions: CAR-SMASh T cells, ASV 2 μM, E:T 10:1
# Source text: Human […] pan T cells were isolated from PBMC donors by magnetic-assisted cell sorting using StemCell Technologies Total Pan T Cell Isolation Kit and stimulated with anti-CD3/28 Dynabeads at a 1:3 ratio (T cells:Dynabeads), 10^6 T cells with 3×10^6 Dynabeads, in CTS OpTmizer media with CTS Serum Replacement and recombinant human IL-2 [100 U/ml]. 1 day later T cells were then transduced with lentivirus carrying anti-HER2 scFv CAR-SMASh designs. CAR-T cells were then split into a larger well with fresh media added. On Day 6 CAR-T cells were treated with ASV [2 μM] for 2 days. On Day 8 CAR-T cells were washed, replenished with ASV, and co-cultured with target HER2+ SKOV3 tumor cells at (10:1) effector-to-target (E:T) ratio, incubated overnight, and supernatants collected the next day. Cytokines were measured by Luminex multi-cytokine array using a Luminex MagPix (Sigma Millipore).
# [2] = system: CAR; assay: Switchable expression of CAR by removal of ASV (YFP, flow cytometry), CAR T cells; conditions: T cells transduced with CAR (FIG. 16A)
# Source text: (§1) Human total pan T cells were isolated from PBMC donors by magnetic-assisted cell sorting using StemCell Technologies Total Pan T Cell Isolation Kit and stimulated with anti-CD3/28 Dynabeads at a 1:3 ratio (T cells:Dynabeads), 10^6 T cells with 3×10^6 Dynabeads, in CTS OpTmizer media with CTS Serum Replacement and recombinant human IL-2 [100 U/ml]. One day later T cells were then transduced with lentivirus carrying a CAR comprising anti-HER2 or anti-CD19 scFv. Specifically, lentivirus encoding CAR, CAR-SMASh and CAR-SMASh[GGS] comprising anti-HER2 or anti-CD19 scFv was transduced. CAR-T cells were then split into a larger well with fresh media added. On Day 5 CAR-T cells were exposed to ASV for 2 days, washed 2 times, then re-cultured in media without ASV and then were acquired by flow cytometry at various time points and YFP expression was measured.
# [3] = system: CAR; assay: Switchable expression of CAR by application of ASV (YFP, flow cytometry), CAR T cells
# Source text: The first fusion protein (left) comprises an extracellular protein binding domain fused to a myc tag and three intracellular signaling domains fused to YFP. The second fusion protein (middle; “CAR-SMASh”) further comprises a Hepatitis C (HCV) NS4A-NS4B protease cleavage site, a HCV NS3 protease domain, and a degron derived from the HCV NS4A protein. The CAR-SMASh, therefore, expresses CAR, but induces degradation of CAR in the presence of ASV. The third fusion protein (right; “CAR-SMASh[GGS]”) is a CAR-SMASh mutant lacking the NS4 degron.
# as §1, with “[…],” for “3×10^6 Dynabeads,”, “[2 μM]” for “for 2 days, washed 2 times, then re-cultured in media without ASV”, “analyzed” for “were acquired”, “cytometry to measure YFP expression” for “cytometry”, “points, including on day 6 (FIG. 13)” for “points”, “on day 7 (FIG. 14).” for “YFP expression was measured.”
# [4] = system: Jurkat cells transduced with an anti-Her2 CAR fused to a self-excising degron; assay: T cell activation (CD69) of anti-Her2 CAR-degron Jurkat cells on recombinant Her2; conditions: 1 μM ASV 2 days, then recombinant Her2-coated plates overnight, even at high Her2 (10 μg/mL)
# Protocol: The function of an anti-Her2 CAR fused to a self-excising degron in T cells was tested in vitro. Jurkat cells (an immortalized human T cell line) were transduced with an anti-Her2 CAR fused to a self-excising degron (SEQ ID NO: 4). These cells were incubated in the presence (1 μM ASV) or absence of the ASV protease inhibitor for 2 days, then subsequently placed on tissue culture plates coated with recombinant Her2 (low=2.5 μg/mL; high=10 μg/mL). Following overnight incubation, the ant-Her2 CAR T cells were stained with an anti-CD69 fluorescent antibody, and the mean fluorescence of each cell population was measured using flow cytometry. CD69 was used as a T-cell activation marker.
structure (smiles),measurement,setting,value
"C=C[C@@H]1C[C@]1(NC(=O)[C@@H]1C[C@@H](Oc2ncc(OC)c3ccc(Cl)cc23)CN1C(=O)[C@@H](NC(=O)OC(C)(C)C)C(C)(C)C)C(=O)NS(=O)(=O)C1CC1 [ASV, Asunaprevir]",IFN-gamma production,[1]; overnight (FIG. 19A),decreased production
same,IL-lalpha production,[1]; overnight (FIG. 19B),decreased production
same,IL-6 production,[1]; overnight (FIG. 19C),decreased production
same,reversible effects on CAR expression (percentage YFP+) after removal of ASV,[2],not observed
same,CAR expression (percentage YFP+ and YFP MFI),"[3]; CAR T cells, ASV 2 μM, day 6 (FIG. 13)",no effect
same,CAR expression (percentage YFP+) over time after addition of ASV,[3]; T cells expressing CAR (FIG. 15A),no effect
same,cells activated (CD69),[4],less than 25%
